This note sets out measurements from ChEMBL document CHEMBL1772958, “In vivo activity of benzoyl ester clerodane diterpenoid derivatives from Dodonaea polyandra” (2011).

Assay [1] concerns Mus musculus. In words: Antiinflammatory activity against TPA-induced ear edema in mouse assessed as ear thickness at 0.90 umol/ear, sc administered 30 mins after TPA challenge measured after 2 to 48 hrs. It counts as functional, organism-based.
For assay [2], the system named is Mus musculus. Kind of assay: Antiinflammatory activity against TPA-induced ear edema in mouse assessed as ear thickness at 0.22 umol/ear, topically administered 30 mins after TPA challenge measured after 8 hrs.
For assay [3], the system named is Mus musculus. Kind of assay: Antiinflammatory activity against TPA-induced ear edema in mouse assessed as ear thickness, sc administered 30 mins after TPA challenge measured after 2 to 48 hrs. The format is functional, organism-based.
In assay [4] the test system is Mus musculus. Kind of assay: Antiinflammatory activity against TPA-induced ear edema in mouse assessed as ear thickness at 0.088 to 1.77 umol/ear, sc administered 30 mins after TPA challenge measured after 2 to 48 hrs. It counts as functional, organism-based.
Assay [5] concerns Mus musculus. Kind of assay: Antiinflammatory activity against TPA-induced ear edema in mouse assessed as ear thickness at 0.91 umol/ear, sc administered 30 mins after TPA challenge measured after 2 to 48 hrs. The format is functional.
The test system of assay [6] is Mus musculus. Kind of assay: Antiinflammatory activity against TPA-induced ear edema in mouse assessed as ear thickness at 1.83 umol/ear, sc administered 30 mins after TPA challenge measured after 2 to 48 hrs. It counts as functional, organism-based.
Assay [7] concerns Mus musculus. Kind of assay: Antiinflammatory activity against TPA-induced ear edema in mouse assessed as ear thickness at 0.023 to 0.91 umol/ear, sc administered 30 mins after TPA challenge measured after 2 to 48 hrs. The format is functional, organism-based.

The source made the active and inactive calls. No cut-off for these calls is given here.

In the case of `CCC(=O)OCC(=O)[C@@]1(OC(=O)CC)[C@@H](C)C[C@H]2[C@@H]3CCC4=CC(=O)C=C[C@]4(C)[C@@]3(F)[C@@H](O)C[C@@]21C`, in assay [1], the inhibition result is “Active”. As for `C[C@@]1(CCc2ccoc2)[C@H](COC(=O)c2ccccc2)CC[C@]2(C)C(C(=O)O)=C[C@H](O)C[C@H]12` (relative stereo), in assay [2], the “inhibition (INH)” value came to 70.2%. Further, the result in assay [3] and in assay [4] was Active. Turning to `C[C@@H]1CC[C@]2(C)C(C(=O)O)=C[C@H](OC(=O)c3ccccc3)C[C@@H]2[C@]1(C)CCc1ccoc1` (relative stereo), the “inhibition (INH)” value in assay [5] came out at 76.4%. With `C[C@@]1(CCc2ccoc2)[C@H](COC(=O)c2ccccc2)CC[C@]2(C)C(C(=O)O)=CCC[C@H]12` (relative stereo), the outcome in assay [6] was Active. Moreover, the outcome in assay [7] was inactive.
